Source: publication PMC2831033, “Characterization of a molecular switch system that regulates gene expression in mammalian cells through a small molecule” (2010)

Tests used:
[1] = molecular target: T1, retinoid X receptor wild type (RXRwt) (Homo sapiens, UniProt P19793); experiment: luciferase reporter (CRBPII response element) activation in transfected HEK293T cells; type: cell-based
T1 construct: gene RXRA; full length RXRwt

[2] = molecular target: T2, RXR variant Q275C;I310M;F313I (QCIMFI) (Homo sapiens, UniProt P19793, Q275C/I310M/F313I); experiment: luciferase reporter activation in transfected HEK293T cells; type: cell-based
T2 construct: gene RXRA; RXR variant LBD with RXR DBD (QCIMFI)
T2 sequence (P19793 1-462 Q275C/I310M/F313I): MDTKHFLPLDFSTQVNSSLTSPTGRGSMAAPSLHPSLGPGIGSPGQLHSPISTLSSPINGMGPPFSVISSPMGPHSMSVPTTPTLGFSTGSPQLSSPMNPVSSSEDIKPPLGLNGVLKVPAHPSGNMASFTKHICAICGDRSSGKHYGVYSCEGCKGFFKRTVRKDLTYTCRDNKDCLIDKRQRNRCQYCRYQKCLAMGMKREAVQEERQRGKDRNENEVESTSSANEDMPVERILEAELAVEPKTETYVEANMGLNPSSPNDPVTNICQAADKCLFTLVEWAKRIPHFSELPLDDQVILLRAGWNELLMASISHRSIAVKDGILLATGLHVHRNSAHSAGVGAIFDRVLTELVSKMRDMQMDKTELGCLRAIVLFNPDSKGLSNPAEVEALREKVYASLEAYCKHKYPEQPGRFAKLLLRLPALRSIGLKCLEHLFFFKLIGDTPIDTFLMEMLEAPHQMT

T1 sequence (P19793 whole entry): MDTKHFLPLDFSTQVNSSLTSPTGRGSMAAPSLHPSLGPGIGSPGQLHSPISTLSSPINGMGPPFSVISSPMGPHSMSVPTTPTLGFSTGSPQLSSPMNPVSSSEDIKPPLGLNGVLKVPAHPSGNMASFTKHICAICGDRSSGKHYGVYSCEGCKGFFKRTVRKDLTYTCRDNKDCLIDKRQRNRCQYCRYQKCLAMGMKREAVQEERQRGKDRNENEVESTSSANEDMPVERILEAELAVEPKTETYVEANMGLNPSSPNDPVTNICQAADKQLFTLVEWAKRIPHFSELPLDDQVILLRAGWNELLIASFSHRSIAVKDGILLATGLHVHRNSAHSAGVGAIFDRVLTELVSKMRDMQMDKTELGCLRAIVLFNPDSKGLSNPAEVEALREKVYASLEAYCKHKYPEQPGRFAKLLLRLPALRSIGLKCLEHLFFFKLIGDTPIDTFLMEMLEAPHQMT

Work on LG335 yielded an EC50 [1] of 338 nM and an EC50 [2] of 38 nM.
